Data: patent US20200188540A1, “CONFORMATIONALLY STRAINED TRANS-CYCLOALKENES FOR RADIOLABELING” (UNIVERSITY OF DELAWARE, priority 2015, published 2020)

How the values were obtained:
[1] = Stopped-flow kinetic analysis of Diels-Alder reaction of sTCO diastereomers with PEGylated tetrazine 11; details: for rate constant k2 with tetrazine 11: 55:45 MeOH:water at 25° C., stopped flow; for Mean k2: average of four sTCO concentrations, spread printed in cells below; for Mean k2 / k2 / kobs: tetrazine 11 0.05 mM, water:methanol 45:55, 25° C.; for kobs: in s-1 (unit assumed)
Protocol: Stopped flow kinetic analysis was used to measure the rate of the Diels-Alder reaction between tetrazine derivative 11 and anti- and syn-diastereomers of sTCO (4 and 5, respectively). […] The latter is the fastest rate constant that has been described for a bioorthogonal reaction. For the present study, the inventors used stopped flow analysis to compare the relative rate of the syn- and anti-diastereomers 5 and 4 with tetrazine 11 in mixed organic/aqueous media (55:45 MeOH:water at 25° C.). As expected, the rates in MeOH:water were ˜9 fold slower than the measurements made in purely aqueous media, but still extremely rapid. The rate constant for the syn-diastereomer 5 with tetrazine 11 was k2 3.7×10^4 (+/−0.1×10^3) M^−1s^−1, and the anti-diastereomer 4 reacted with a rate constant k2 3.3×10^4 (+/−0.1×10^3) M^−1s^−1. Because the syn-diastereomer was more reactive it was chosen for further development
The second order rate constant was measured under pseudo-first order conditions using an excess of the appropriate sTCO diastereomer (4 or 5), and by following the exponential decay of absorbance due to the tetrazine chromophore of 11 at 298 nm using an SX 18MV-R stopped-flow spectrophotometer (Applied Photophysics Ltd.). For each run, equal volumes of 45:55 water:methanol solutions of sTCO and PEGylated tetrazine 11 were mixed in the stopped flow device. Reactions were carried out with tetrazine 11 at 0.05 mM and final concentrations of 0.245, 0.49, 0.98 and 1.47 mM for the syn-diastereomer 5. Similarly, reactions were carried out with tetrazine 11 at 0.05 mM and final concentrations of 0.25, 0.50, 1.00 and 1.50 mM for the anti-diastereomer 4. A total of 400 data points were recorded over a period of 1 second, and each sample was performed in sextuplicate at 298 K. The kobs was determined by nonlinear regression analysis of the data points using Prism software (v. 6.00, GraphPad Software Inc.).
The reaction between sTCOs 4 & 5 and the PEGylated tetrazine 11 was measured under pseudo-first order conditions in water:methanol 45:55 by following the exponential decay of the tetrazine at 298 nm over time using an SX 18MV-R stopped flow spectrophotometer (Applied Photophysics Ltd.). Solutions were prepared for the sTCO concentrations see table below water:methanol 45:55) and the tetrazine (0.1 mM in water:methanol 45:55) and thermostatted in the syringes of the spectrophotometer before measuring. 400 data points were recorded over a period of 1 second, and performed in sextuplicate at 298 K. The kobs was determined by nonlinear regression analysis of the data points using Prism software (v. 6.00, GraphPad Software Inc.).
• PEGylated tetrazine 11 at 25° C. in water:methanol (45:55) measured under pseudo first order conditions using SX 18MV-R stopped flow spectrophotometer. Values were determined from an average of four runs. Synthesis and Characterization of a Conformationally Strained Trans-Cyclooctene with a Cis-Fused Cyclopentane Ring

[2] = In vitro stability in 1× PBS buffer; type: physicochemical; details: 37° C.; for radiochemical purity after incubation in 1× PBS: 2 hours
Protocol: (§1) An aliquot of the solution (˜25 μCi) was taken out and loaded on HPLC at 1 h and 2 h time points for analysis. ^18F-9 was also incubated in FBS at 37° C. and after 1 h, an aliquot of the solution (˜25 μCi) was taken out and added to an equal volume of TFA. Similarly, ^18F-15 was also incubated in FBS at 37° C., and at 2 and 4 h time points, aliquots of the solution (˜25 μCi) were taken and added to an equal volume of TFA. For each sample, the mixture was centrifuged at 14000 rpm for 5 min. The supernatant was then diluted with 1 mL water and loaded on C18 Sep-Pak. After washing with 1 mL water, the cartridge was eluted with 0.5 mL acetonitrile. The water fraction and acetonitrile fraction were combined and loaded on HPLC for analysis

[3] = In vitro stability in fetal bovine serum (FBS); type: in vitro ADME; details: 37° C.
Protocol: as §1

[4] = microPET imaging in normal (non-tumor bearing) nude mice; type: in vivo; details: normal nude mouse
Protocol: The inventors also performed microPET imaging with a normal (non-tumor bearing) nude mouse that had been injected with ^18F-9. […] The inventors also analyzed the clearance of the compound obtained by combining ^18F-9 with 11. This Diels-Alder conjugate—and analog of ^18F-15 that lacks the RGD moiety—still remained in the blood circulatory system after 4 hours. The blood uptake was 2.4% ID/g at 4 h post injection. The inventors have previously reported ^18F-labeled RGD probes derived from trans-cyclooctene 1.
No background correction was performed.

in vivo = details: mouse, iv, 3.7 MBq (100 uCi), total radioactivity
Protocol: (§2) The localization of ^18F-15 in human U87MG tumor-bearing mice (n=5) was performed by static microPET scans at multiple time-point post tail vein injection. Selected decay-corrected coronal images at different time points were obtained after injection of 3.7 MBq (100 μCi) of ^18F-15. […] Data are expressed as average +/−SD.
(§3) Animal procedures were performed according to a protocol approved by the UNC Institutional Animal Care and Use Committee. PET scans and image analysis were performed using a small animal PET scanner. Human U87MG tumor-bearing mice were anesthetized using 2% isoflurane and injected with 3.7 MBq (100 μCi) of ^18F-15 via the tail vein. At 0.5, 1.0, 2.0, and 4.0 h post injection, static emission scans were acquired for 10 min. Normal nude mice were injected with 3.7 MBq (100 μCi) of the Diels-Alder conjugate obtained by combining ^18F-9 and 11), or in a separate experiment by injecting only ^18F-9 using the same protocol. Raw PET images were reconstructed using 2D ordered subset expectation maximization (OSEM) algorithm. No background correction was performed. Regions of interest (ROI) were manually drawn over the tumor and other organs on the decay corrected coronal images. Based on the assumption that the tissue density is 1 g/mL, the ROIs were converted to % ID/g by dividing dose per gram at ROI by injected dose.
(§4) Quantitative data were expressed as mean±SD. Means were compared using one-way ANOVA and Student's t test. P values<0.05 were considered statistically significant.

human U87MG tumor = test: in vivo
Protocol: as §2, §3, §4

SMILES: OCC1C2CCC=CCCC12 (stereo not drawn) [Compound 4]
- rate constant k2 with tetrazine 11 [1]: 3.3×10^4 (+/−0.1×10^3) M^−1s^−1
- Mean k2 [1]: 31,700 M^−1s^−1
- k2 ([1]; resulting sTCO 0.25 mM): 29832 M⁻¹ s⁻¹
- kobs ([1]; resulting sTCO 0.25 mM): 7.458
- k2 ([1]; resulting sTCO 0.5 mM): 31680 M⁻¹ s⁻¹
- kobs ([1]; resulting sTCO 0.5 mM): 15.84
- k2 ([1]; resulting sTCO 1 mM): 32510 M⁻¹ s⁻¹
- kobs ([1]; resulting sTCO 1 mM): 32.51
- k2 ([1]; resulting sTCO 1.5 mM): 32653 M⁻¹ s⁻¹
- kobs ([1]; resulting sTCO 1.5 mM): 48.98

SMILES: OC[C@H]1[C@H]2CC/C=C/CC[C@@H]12 [Compound 5, (rel-1R,8S,9S,4E)-Bicyclo[6.1.0]non-4-ene-9-ylmethanol]
- rate constant k2 with tetrazine 11 [1]: 3.7×10^4 (+/−0.1×10^3) M^−1s^−1
- Mean k2 [1]: 36,100 M^−1s^−1
- k2 ([1]; resulting sTCO 0.245 mM): 34347 M⁻¹ s⁻¹
- kobs ([1]; resulting sTCO 0.245 mM): 8.415
- k2 ([1]; resulting sTCO 0.49 mM): 37571 M⁻¹ s⁻¹
- kobs ([1]; resulting sTCO 0.49 mM): 18.41
- k2 ([1]; resulting sTCO 0.98 mM): 35796 M⁻¹ s⁻¹
- kobs ([1]; resulting sTCO 0.98 mM): 35.08
- k2 ([1]; resulting sTCO 1.47 mM): 36857 M⁻¹ s⁻¹
- kobs ([1]; resulting sTCO 1.47 mM): 54.18

SMILES: FCCOCCOCCOC[C@@H]1[C@@H]2CC/C=C/CC[C@@H]21 [^18F-9]
- kinetics with diphenyl-s-tetrazines ([1]; general statement of reactivity): > 10^4 M^−1s^−1
- radiopurity after incubation in 1× PBS ([2]; 1 hour): 97.5%
- radiochemical purity after incubation in 1× PBS [2]: 97.3%
- radiochemical purity retained in fetal bovine serum ([3]; 1 hour): 74%
- time to clearance by the gallbladder, kidney and liver [4]: ≤ 2 h

SMILES: N=C(N)NCCC[C@@H]1NC(=O)C(CCCCNC(=O)CCOCCOCCOCCOCCOCCOCCOCCOCCOCCOCCOCCOCCNC(=O)OCc2ccc(C3=NNC(c4ccccc4)=C4CC[C@H]5[C@@H](CCC34)[C@H]5COCCOCCOCCF)cc2)NC(=O)[C@@H](Cc2ccc(O)cc2)NC(=O)[C@H](CC(=O)O)NC(=O)CNC1=O (stereo partly drawn) [^18F-15]
- radiochemical purity after incubation in 1× PBS [2]: 98.5%
- purity in fetal bovine serum ([3]; 2 hours post incubation): 96.7%
- purity in fetal bovine serum ([3]; 4 hours post incubation): 94.5%
- tissue uptake at 0.5 h (in vivo; tumor (U87MG)): 5.3 %ID/g
- tissue uptake at 1 h (in vivo; tumor (U87MG)): 6.9 %ID/g
- tissue uptake at 2 h (in vivo; tumor (U87MG)): 7.5 %ID/g
- tissue uptake at 4 h (in vivo; tumor (U87MG)): 8.9 %ID/g
- tissue to tissue ratio at 4 h (in vivo; tumor and kidney): 2.4
- tissue to tissue ratio at 4 h (in vivo; tumor and liver): 1.6
- tumor uptake relative to other major organs (human U87MG tumor; 4 h post injection): 1.6-2.4 fold
- tracer uptake in tumor, blocking experiment (human U87MG tumor; co-injected with non-radio labeled cRGDyK (200 μg), 1 h post injection): 4.8+/−0.3%
